Experiments:
Assay in all cases: cells
COLO-824 = assay type: functional, cell-based, Homo sapiens; details: Homo sapiens, COLO-824
Description: SANGER: Inhibition of human COLO-824 cell growth in a cell viability assay.

D283 Med = assay type: functional, cell-based, Homo sapiens; details: Homo sapiens, D283 Med
Description: SANGER: Inhibition of human D-283MED cell growth in a cell viability assay.

DU-4475 = assay type: functional, cell-based, Homo sapiens; details: Homo sapiens, DU-4475
Description: SANGER: Inhibition of human DU-4475 cell growth in a cell viability assay.

ES1 = assay type: functional, cell-based, Homo sapiens; details: Homo sapiens, ES1
Description: SANGER: Inhibition of human ES1 cell growth in a cell viability assay.

ES8 = assay type: functional, cell-based, Homo sapiens; details: Homo sapiens, ES8
Description: SANGER: Inhibition of human ES8 cell growth in a cell viability assay.

ETK-1 = assay type: functional, cell-based, Homo sapiens; details: Homo sapiens, ETK-1
Description: SANGER: Inhibition of human ETK-1 cell growth in a cell viability assay.

EW-13 = assay type: functional, cell-based, Homo sapiens; details: Homo sapiens, EW-13; read-out: IC50
Description: SANGER: Inhibition of human EW-13 cell growth in a cell viability assay.

EW-3 = assay type: functional, cell-based, Homo sapiens; details: Homo sapiens, EW-3
Description: SANGER: Inhibition of human EW-3 cell growth in a cell viability assay.

EOL1 = assay type: functional, cell-based, Homo sapiens; details: Homo sapiens, EOL1
Description: SANGER: Inhibition of human EoL-1-cell cell growth in a cell viability assay.

GB-1 = assay type: functional, cell-based, Homo sapiens; details: Homo sapiens, GB-1
Description: SANGER: Inhibition of human GB-1 cell growth in a cell viability assay.

HCE-T = assay type: functional, cell-based, Homo sapiens; details: Homo sapiens, HCE-T
Description: SANGER: Inhibition of human HCE-T cell growth in a cell viability assay.

HDLM-2 = assay type: functional, cell-based, Homo sapiens; details: Homo sapiens, HDLM-2
Description: SANGER: Inhibition of human HDLM-2 cell growth in a cell viability assay.

HT = assay type: functional, cell-based, Homo sapiens; details: Homo sapiens, HT
Description: SANGER: Inhibition of human HT cell growth in a cell viability assay.

JVM-3 = assay type: functional, cell-based, Homo sapiens; details: Homo sapiens, JVM-3
Description: SANGER: Inhibition of human JVM-3 cell growth in a cell viability assay.

KALS-1 = assay type: functional, cell-based, Homo sapiens; details: Homo sapiens, KALS-1; read-out: IC50
Description: SANGER: Inhibition of human KALS-1 cell growth in a cell viability assay.

KU812 cell line = assay type: functional, cell-based, Homo sapiens; details: Homo sapiens, KU812
Description: SANGER: Inhibition of human KU812 cell growth in a cell viability assay.

LS-123 = assay type: functional, cell-based, Homo sapiens; details: Homo sapiens, LS-123
Description: SANGER: Inhibition of human LS-123 cell growth in a cell viability assay.

LS-513 = assay type: functional, cell-based, Homo sapiens; details: Homo sapiens, LS-513
Description: SANGER: Inhibition of human LS-513 cell growth in a cell viability assay.

MC116 = assay type: functional, cell-based, Homo sapiens; details: Homo sapiens, MC116
Description: SANGER: Inhibition of human MC116 cell growth in a cell viability assay.

ML-2 = assay type: functional, cell-based, Homo sapiens; details: Homo sapiens, ML-2
Description: SANGER: Inhibition of human ML-2 cell growth in a cell viability assay.

MMAC-SF = assay type: functional, cell-based; details: Homo sapiens
Description: SANGER: Inhibition of human MMAC-SF cell growth in a cell viability assay.

MZ1-PC = assay type: functional, cell-based, Homo sapiens; details: Homo sapiens, MZ1-PC
Description: SANGER: Inhibition of human MZ1-PC cell growth in a cell viability assay.

NCI-H1155 = assay type: functional, cell-based, Homo sapiens; details: Homo sapiens, NCI-H1155
Description: SANGER: Inhibition of human NCI-H1155 cell growth in a cell viability assay.

NCI-H1395 = assay type: functional, cell-based, Homo sapiens; details: Homo sapiens, NCI-H1395
Description: SANGER: Inhibition of human NCI-H1395 cell growth in a cell viability assay.

NCI-H1648 = assay type: functional, cell-based, Homo sapiens; details: Homo sapiens, NCI-H1648
Description: SANGER: Inhibition of human NCI-H1648 cell growth in a cell viability assay.

NCI-H82 = assay type: functional, cell-based, Homo sapiens; details: Homo sapiens, NCI-H82
Description: SANGER: Inhibition of human NCI-H82 cell growth in a cell viability assay.

RKO = assay type: functional, cell-based, Homo sapiens; details: Homo sapiens, RKO
Description: SANGER: Inhibition of human RKO cell growth in a cell viability assay.

Ramos-2G6-4C10 = assay type: functional, cell-based, Homo sapiens; details: Homo sapiens, Ramos-2G6-4C10
Description: SANGER: Inhibition of human Ramos-2G6-4C10 cell growth in a cell viability assay.

SBC-1 = assay type: functional, cell-based, Homo sapiens; details: Homo sapiens, SBC-1
Description: SANGER: Inhibition of human SBC-1 cell growth in a cell viability assay.

SF-126 = assay type: functional, cell-based, Homo sapiens; details: Homo sapiens, SF-126
Description: SANGER: Inhibition of human SF126 cell growth in a cell viability assay.

SF-268 = assay type: functional, cell-based, Homo sapiens; details: Homo sapiens, SF-268
Description: SANGER: Inhibition of human SF268 cell growth in a cell viability assay.

SH-4 = assay type: functional, cell-based; details: Homo sapiens
Description: SANGER: Inhibition of human SH-4 cell growth in a cell viability assay.

SK-MEL-1 = assay type: functional, cell-based, Homo sapiens; details: Homo sapiens, SK-MEL-1
Description: SANGER: Inhibition of human SK-MEL-1 cell growth in a cell viability assay.

SW684 = assay type: functional, cell-based, Homo sapiens; details: Homo sapiens, SW684; read-out: IC50
Description: SANGER: Inhibition of human SW684 cell growth in a cell viability assay.

SW 954 = assay type: functional, cell-based, Homo sapiens; details: Homo sapiens, SW 954
Description: SANGER: Inhibition of human SW954 cell growth in a cell viability assay.

A101D = assay type: functional, cell-based, Homo sapiens; details: Homo sapiens, A101D
Description: SANGER: Inhibition of human A101D cell growth in a cell viability assay.

A388 = assay type: functional, cell-based; details: Homo sapiens
Description: SANGER: Inhibition of human A388 cell growth in a cell viability assay.

A498 = assay type: functional, cell-based, Homo sapiens; details: Homo sapiens, A498
Description: SANGER: Inhibition of human A498 cell growth in a cell viability assay.

A704 = assay type: functional, cell-based; details: Homo sapiens
Description: SANGER: Inhibition of human A704 cell growth in a cell viability assay.

ACN = assay type: functional, cell-based, Homo sapiens; details: Homo sapiens, ACN
Description: SANGER: Inhibition of human ACN cell growth in a cell viability assay.

ATN-1 = assay type: functional, cell-based, Homo sapiens; details: Homo sapiens, ATN-1
Description: SANGER: Inhibition of human ATN-1 cell growth in a cell viability assay.

BB30-HNC = assay type: functional, cell-based, Homo sapiens; details: Homo sapiens, BB30-HNC
Description: SANGER: Inhibition of human BB30-HNC cell growth in a cell viability assay.

BE-13 = assay type: functional, cell-based, Homo sapiens; details: Homo sapiens, BE-13
Description: SANGER: Inhibition of human BE-13 cell growth in a cell viability assay.

Becker = assay type: functional, cell-based, Homo sapiens; details: Homo sapiens, Becker
Description: SANGER: Inhibition of human Becker cell growth in a cell viability assay.

C2BBe1 = assay type: functional, cell-based, Homo sapiens; details: Homo sapiens, C2BBe1
Description: SANGER: Inhibition of human C2BBe1 cell growth in a cell viability assay.

TE-11 = assay type: functional, cell-based; details: Homo sapiens
Description: SANGER: Inhibition of human TE-11 cell growth in a cell viability assay.

TE-12 = assay type: functional, cell-based, Homo sapiens; details: Homo sapiens, TE-12
Description: SANGER: Inhibition of human TE-12 cell growth in a cell viability assay.

TK-10 = assay type: functional, cell-based, Homo sapiens; details: Homo sapiens, TK-10
Description: SANGER: Inhibition of human TK10 cell growth in a cell viability assay.

CAS-1 = assay type: functional, cell-based, Homo sapiens; details: Homo sapiens, CAS-1
Description: SANGER: Inhibition of human CAS-1 cell growth in a cell viability assay.

COLO-684 = assay type: functional, cell-based, Homo sapiens; details: Homo sapiens, COLO-684
Description: SANGER: Inhibition of human COLO-684 cell growth in a cell viability assay.

## C/C(=C\c1csc(C)n1)[C@@H]1C[C@@H]2O[C@]2(C)CCC[C@H](C)[C@H](O)[C@@H](C)C(=O)C(C)(C)[C@@H](O)CC(=O)O1 [PATUPILONE]
COLO-824
  IC50: 23.3 nM
D283 Med
  IC50: > 32 nM
DU-4475
  IC50: 2.38 nM
ES1
  IC50: 0.221 nM
ES8
  IC50: 1.65 nM
ETK-1
  IC50: 0.979 nM
EW-13
  IC50: 0.903 nM
EW-3
  IC50: > 32 nM
EOL1
  IC50: 12.9 nM
GB-1
  IC50: 1.19 nM
HCE-T
  IC50: 4.07 nM
HDLM-2
  IC50: 19.5 nM
HT
  IC50: 20.5 nM
JVM-3
  IC50: > 32 nM
KALS-1
  IC50: 3.19 nM
KU812 cell line
  IC50: 3.45 nM
LS-123
  IC50: 0.96 nM
LS-513
  IC50: > 32 nM
MC116
  IC50: 3.86 nM
ML-2
  IC50: 2.46 nM
MMAC-SF
  IC50: 23 nM
MZ1-PC
  IC50: 0.607 nM
NCI-H1155
  IC50: > 32 nM
NCI-H1395
  IC50: > 32 nM
NCI-H1648
  IC50: 0.982 nM
NCI-H82
  IC50: > 32 nM
RKO
  IC50: 0.0647 nM
Ramos-2G6-4C10
  IC50: 9.62 nM
SBC-1
  IC50: > 32 nM
SF-126
  IC50: 3.47 nM
SF-268
  IC50: 4.66 nM
SH-4
  IC50: 7.73 nM
SK-MEL-1
  IC50: > 32 nM
SW684
  IC50: > 32 nM
SW 954
  IC50: 0.436 nM
A101D
  IC50: 0.856 nM
A388
  IC50: 0.94 nM
A498
  IC50: > 32 nM
A704
  IC50: 14.6 nM
ACN
  IC50: 1.07 nM
ATN-1
  IC50: 3.47 nM
BB30-HNC
  IC50: 0.201 nM
BE-13
  IC50: 7.3 nM
Becker
  IC50: 2.86 nM
C2BBe1
  IC50: > 32 nM
TE-11
  IC50: 1.2 nM
TE-12
  IC50: 5.47 nM
TK-10
  IC50: 2.05 nM
CAS-1
  IC50: 24.5 nM
COLO-684
  IC50: 6.97 nM

## COc1ccc(-c2cc3nccn3c(Nc3ncccc3C(N)=O)n2)cc1OC
COLO-824
  IC50: > 8000 nM
D283 Med
  IC50: > 8000 nM
DU-4475
  IC50: 2170 nM
ES1
  IC50: 2380 nM
ES8
  IC50: 5980 nM
ETK-1
  IC50: 5210 nM
EW-13
  IC50: 1470 nM
EW-3
  IC50: 4930 nM
EOL1
  IC50: 333 nM
GB-1
  IC50: 2830 nM
HCE-T
  IC50: > 8000 nM
HDLM-2
  IC50: > 8000 nM
HT
  IC50: 6220 nM
JVM-3
  IC50: > 8000 nM
KALS-1
  IC50: > 8000 nM
KU812 cell line
  IC50: 4240 nM
LS-123
  IC50: > 8000 nM
LS-513
  IC50: > 8000 nM
MC116
  IC50: 2510 nM
ML-2
  IC50: > 8000 nM
MMAC-SF
  IC50: > 8000 nM
MZ1-PC
  IC50: 3490 nM
NCI-H1155
  IC50: > 8000 nM
NCI-H1395
  IC50: > 8000 nM
NCI-H1648
  IC50: > 8000 nM
NCI-H82
  IC50: > 8000 nM
RKO
  IC50: 2770 nM
Ramos-2G6-4C10
  IC50: 2950 nM
SBC-1
  IC50: > 8000 nM
SF-126
  IC50: > 8000 nM
SF-268
  IC50: 2830 nM
SH-4
  IC50: > 8000 nM
SK-MEL-1
  IC50: > 8000 nM
SW684
  IC50: > 8000 nM
SW 954
  IC50: > 8000 nM
A101D
  IC50: 4870 nM
A388
  IC50: 5950 nM
A498
  IC50: > 8000 nM
A704
  IC50: > 8000 nM
ACN
  IC50: > 8000 nM
ATN-1
  IC50: > 8000 nM
BB30-HNC
  IC50: 2820 nM
BE-13
  IC50: 2700 nM
Becker
  IC50: > 8000 nM
C2BBe1
  IC50: > 8000 nM
TE-11
  IC50: > 8000 nM
TE-12
  IC50: 531 nM
TK-10
  IC50: 6960 nM
CAS-1
  IC50: 4500 nM
COLO-684
  IC50: 5840 nM

## C=CC(=O)N1CCCC(Nc2nc(Nc3ccc(N(C)C(=O)CC)cc3)nc3[nH]cnc23)C1 (stereo not given)
COLO-824
  IC50: > 10200 nM
D283 Med
  IC50: > 10200 nM
DU-4475
  IC50: > 10200 nM
ES1
  IC50: > 10200 nM
ES8
  IC50: > 10200 nM
ETK-1
  IC50: > 10200 nM
EW-13
  IC50: > 10200 nM
EW-3
  IC50: > 10200 nM
EOL1
  IC50: 4400 nM
GB-1
  IC50: > 10200 nM
HCE-T
  IC50: > 10200 nM
HDLM-2
  IC50: > 10200 nM
HT
  IC50: > 10200 nM
JVM-3
  IC50: > 10200 nM
KALS-1
  IC50: > 10200 nM
KU812 cell line
  IC50: > 10200 nM
LS-123
  IC50: > 10200 nM
LS-513
  IC50: > 10200 nM
MC116
  IC50: > 10200 nM
ML-2
  IC50: > 10200 nM
MMAC-SF
  IC50: > 10200 nM
MZ1-PC
  IC50: 7940 nM
NCI-H1155
  IC50: > 10200 nM
NCI-H1395
  IC50: > 10200 nM
NCI-H1648
  IC50: 8580 nM
NCI-H82
  IC50: > 10200 nM
RKO
  IC50: > 10200 nM
Ramos-2G6-4C10
  IC50: > 10200 nM
SBC-1
  IC50: 7970 nM
SF-126
  IC50: > 10200 nM
SF-268
  IC50: > 10200 nM
SH-4
  IC50: > 10200 nM
SK-MEL-1
  IC50: > 10200 nM
SW684
  IC50: > 10200 nM
SW 954
  IC50: 2560 nM
A101D
  IC50: > 10200 nM
A388
  IC50: 7410 nM
A498
  IC50: > 10200 nM
A704
  IC50: > 10200 nM
ACN
  IC50: > 10200 nM
ATN-1
  IC50: > 10200 nM
BB30-HNC
  IC50: 3410 nM
BE-13
  IC50: > 10200 nM
Becker
  IC50: > 10200 nM
C2BBe1
  IC50: > 10200 nM
TE-11
  IC50: > 10200 nM
TE-12
  IC50: 2350 nM
TK-10
  IC50: > 10200 nM
CAS-1
  IC50: > 10200 nM
COLO-684
  IC50: > 10200 nM
